One data set has as its system hypertensive patients. The data set is described as follows: Clinic blood pressure, change from baseline with study treatment, by renin −5312 C/T genotype. The class given is in vivo, human. To be noted: for BP lowering by −5312 C/T genotype: clinic and ambulatory BP, T allele carriers versus CC homozygotes. From the text: Tables 2 and 3 show baseline clinic and ambulatory blood pressures, and the changes from baseline with study treatment.

For data set [1], the system named is plasma renin activity. Kind of data set: Trough plasma renin activity (PRA) after four weeks of treatment. The following applies: for PRA Percentage Change / PRA on treatment (trough): Losartan 100 mg, after four weeks, median (interquartile range); for Effect of therapy on PRA: trough PRA after four weeks of treatment.
A further data set concerns plasma renin. The following applies: aliskiren 160-640 mg; unstimulated plasma renin 10-20 pg/ml; cited from earlier work.
For data set [2] the following is noted: for Plasma aliskiren on treatment (trough): Aliskiren 300 mg, after four weeks, median (interquartile range).
A further data set is described as follows: clinical. To be noted: human, plasma, Plasma aliskiren on treatment (trough), after four weeks, median (interquartile range).
In data set [3] the target is T1, plasma renin activity (Homo sapiens, UniProt P00797).
T1 sequence (P00797 67-406): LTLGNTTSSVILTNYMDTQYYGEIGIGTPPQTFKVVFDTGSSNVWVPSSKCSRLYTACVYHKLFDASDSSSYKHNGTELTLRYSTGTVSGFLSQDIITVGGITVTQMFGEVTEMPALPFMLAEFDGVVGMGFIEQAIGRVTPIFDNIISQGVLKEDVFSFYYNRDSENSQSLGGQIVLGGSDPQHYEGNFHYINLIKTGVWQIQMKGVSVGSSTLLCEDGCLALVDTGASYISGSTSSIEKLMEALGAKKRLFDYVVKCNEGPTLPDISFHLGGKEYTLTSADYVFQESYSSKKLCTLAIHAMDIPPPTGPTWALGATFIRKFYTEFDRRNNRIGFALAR
Kind of data set: Trough plasma renin activity (PRA) after four weeks of treatment. To be noted: after four weeks, median (interquartile range).

Setting [4] is: Ren CC homozygotes, Aliskiren 37.5 mg.
Setting [5] is: Ren CC homozygotes, Aliskiren 75 mg.
[6] abbreviates: Ren CC homozygotes, Aliskiren 150 mg.
Where [7] appears, read: Ren CC homozygotes, Aliskiren 300 mg.
The mark [8] stands for this setting: Ren T allele carriers, Aliskiren 37.5 mg.
Setting [9] is: Ren T allele carriers, Aliskiren 75 mg.
[10] abbreviates: Ren T allele carriers, Aliskiren 150 mg.
Setting [11] is: Ren T allele carriers, Aliskiren 300 mg.

SMILES strings stand for the structures. “Also recorded” adds a separate entry of the source. Like-named read-outs stand apart in the source and are kept apart here.

Turning to `CCCCc1nc(Cl)c(CO)n1Cc1ccc(-c2ccccc2-c2nn[nH]n2)cc1` [Losartan], the “BP lowering by −5312 C/T genotype” value in the data set on hypertensive patients is “greatest with Losartan 100 mg daily amongst T allele carriers; also recorded: amongst T allele carriers of the −5312 C/T variant”. Also, in the data set on plasma renin activity [1] (Ren CC homozygotes), the “PRA Percentage Change” value is 110.32 (15.4, 262.5) % and the “PRA on treatment (trough)” value is on record as 1.65 (0.60, 3.20) ng/ml/h. For the same compound, in the data set with plasma renin activity [1] (Ren T allele carriers), the “PRA Percentage Change” value is given as 97.6 (22.2, 363.8) % and the “PRA on treatment (trough)” value was 1.80 (0.65, 3.30) ng/ml/h. In addition, in the data set on plasma renin activity [1], the “Effect of therapy on PRA” value is “increased PRA levels”.
Take `COCCCOc1cc(C[C@@H](C[C@H](N)[C@@H](O)C[C@H](C(=O)NCC(C)(C)C(N)=O)C(C)C)C(C)C)ccc1OC` [Aliskiren]: in the data set with hypertensive patients (Aliskiren 37.5 to 300 mg daily), the “Relationship between dose and BP lowering” value was “clear dose response relationship”. The “BP lowering by −5312 C/T genotype” value with hypertensive patients was “BP lowering was greatest amongst CC homozygotes; also recorded: amongst CC homozygotes of the −5312 C/T variant”. Further, the “Plasma renin levels in the presence of aliskiren” value in the data set on plasma renin is 300 to 600 pg/mL. The “Plasma aliskiren on treatment (trough)” value is recorded as 31.5 (70.3, 13.5) ng/ml in data set [2] (Ren CC homozygotes) and 20.5 (41.0, 17.0) ng/ml in data set [2] (Ren T allele carriers). For the same compound, the “Reduction of on treatment plasma aliskiren levels amongst T allele carriers” value in data set [2] (T allele carriers versus CC homozygotes, trough, after 4 weeks of treatment) was 20%-30%. Further, the concentration at 4 weeks in the data set “clinical” (37.5 mg, Ren CC homozygotes, Aliskiren 37.5 mg) stood at 3.1 ng/mL; in “clinical” (37.5 mg, Ren T allele carriers, Aliskiren 37.5 mg) it was 2.4 ng/mL; in the data set “clinical” (75 mg, Ren CC homozygotes, Aliskiren 75 mg), 4.4 ng/mL; in the data set “clinical” (75 mg, Ren T allele carriers, Aliskiren 75 mg) it was 3.9 ng/mL; in the data set “clinical” (150 mg, Ren CC homozygotes, Aliskiren 150 mg), 11 ng/mL; in the data set “clinical” (150 mg, Ren T allele carriers, Aliskiren 150 mg), 7.1 ng/mL. Also, the concentration at 4 weeks in the data set “clinical” (300 mg, Ren CC homozygotes, Aliskiren 300 mg) worked out at 31.9 ng/mL; in the data set “clinical” (300 mg, Ren T allele carriers, Aliskiren 300 mg), 20.5 ng/mL. Besides, the “PRA Percentage Change” value is listed as −50.0 (−4.5, −62.7) % on plasma renin activity [3] (setting [4]); −61.7 (−32.7, −82.1) % on plasma renin activity [3] (setting [5]); −77.8 (−70.6, −84.8) % on plasma renin activity [3] (setting [6]); −82.5 (−69.9, −86.7) % at plasma renin activity [3] (setting [7]); −63.8 (−11.2, −77.9) % on plasma renin activity [3] (setting [8]); −54.3 (−44.4, −81.5) % on plasma renin activity [3] (setting [9]). The “PRA Percentage Change” value on plasma renin activity [3] (setting [10]) is −75.7 (−67.4, −82.1) %; at plasma renin activity [3] (setting [11]) it was −82.5 (−69.9, −86.7) %. Moreover, the “PRA on treatment (trough)” value on plasma renin activity [3] (setting [4]) is 0.32 (0.12, 0.77) ng/ml/h; on plasma renin activity [3] (setting [5]), 0.16 (0.09, 0.46) ng/ml/h; on plasma renin activity [3] (setting [6]), 0.10 (0.06, 0.31) ng/ml/h; on plasma renin activity [3] (setting [7]), 0.17 (0.06, 0.42) ng/ml/h; at plasma renin activity [3] (setting [8]), 0.17 (0.06, 0.89) ng/ml/h; on plasma renin activity [3] (setting [9]) it was 0.42 (0.20, 0.59) ng/ml/h. Besides, the “PRA on treatment (trough)” value on plasma renin activity [3] (setting [10]) is on record as 0.17 (0.12, 0.47) ng/ml/h; at plasma renin activity [3] (setting [11]), 0.18 (0.06, 0.51) ng/ml/h. In addition, the “Effect of therapy on PRA” value in the data set with plasma renin activity [1] is “suppressed PRA”.

The values are drawn from patent publication US8304190B2, “Pharmacogenomics of blood pressure lowering agents” (Royal College of Surgeons in Ireland, priority 2005, dated 2012).
